The source of these data is the Kinase Knowledgebase extract (Sharma et al. 2016).

The target in this test is PIK3CD (Human) (UniProt O00329). Description: Assessment of PIK3CD Kinase Activity.

Where only a bound is given, the exact number is not on record here.

Sequence of PIK3CD (Human) (O00329 whole entry, looked up): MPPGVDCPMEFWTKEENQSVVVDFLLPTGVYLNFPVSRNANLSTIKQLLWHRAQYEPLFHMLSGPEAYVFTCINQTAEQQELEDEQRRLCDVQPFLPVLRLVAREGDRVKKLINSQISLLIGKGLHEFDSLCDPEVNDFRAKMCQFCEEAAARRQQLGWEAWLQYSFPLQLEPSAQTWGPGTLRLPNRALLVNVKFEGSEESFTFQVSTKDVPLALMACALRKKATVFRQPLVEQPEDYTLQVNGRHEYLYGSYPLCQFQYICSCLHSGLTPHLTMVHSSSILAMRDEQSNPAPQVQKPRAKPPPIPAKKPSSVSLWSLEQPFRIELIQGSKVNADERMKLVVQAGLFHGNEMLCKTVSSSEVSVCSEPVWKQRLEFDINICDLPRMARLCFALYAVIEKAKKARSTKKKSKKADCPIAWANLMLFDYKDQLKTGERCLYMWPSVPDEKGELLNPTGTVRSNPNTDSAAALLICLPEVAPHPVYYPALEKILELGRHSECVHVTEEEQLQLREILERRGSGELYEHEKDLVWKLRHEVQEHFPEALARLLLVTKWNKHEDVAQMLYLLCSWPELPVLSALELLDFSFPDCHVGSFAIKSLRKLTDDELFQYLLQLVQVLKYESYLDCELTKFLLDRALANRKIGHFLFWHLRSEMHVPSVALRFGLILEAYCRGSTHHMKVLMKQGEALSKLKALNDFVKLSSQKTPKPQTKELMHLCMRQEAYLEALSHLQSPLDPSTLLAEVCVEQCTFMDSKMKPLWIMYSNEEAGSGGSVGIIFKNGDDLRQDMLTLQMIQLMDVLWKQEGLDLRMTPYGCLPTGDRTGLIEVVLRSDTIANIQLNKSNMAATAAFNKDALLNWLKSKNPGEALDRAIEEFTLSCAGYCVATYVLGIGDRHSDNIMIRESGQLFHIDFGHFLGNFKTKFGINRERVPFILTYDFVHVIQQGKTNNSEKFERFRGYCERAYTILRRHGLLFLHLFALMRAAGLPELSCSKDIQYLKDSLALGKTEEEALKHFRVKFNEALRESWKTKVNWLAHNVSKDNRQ

As a reminder, the IC50 is the concentration that inhibits the measured activity by half. The low end stands for greater potency, the high end for weaker potency. `CCOc1ccccc1-c1nc2c(C)cccc2cc1Cn1cnc2c(N)ncnc21` returned an IC50 of 250 to 500 nM.

Compound `COc1cc(OC)cc(OCc2cc3cccc(C)c3nc2-c2ccccc2Cl)c1` yielded an IC50 of 500 to 1500 nM.

On to `Cc1cccc2cc(CNC(=O)c3nccnc3N)c(N3C[C@H](C)NC[C@H]3C)nc12`, for which the IC50 was 250 to 500 nM.

`CNCCN(C)c1nc2c(C)cccc2cc1COc1cccc(OC)c1` gave an IC50 of 500 to 1500 nM.

`COc1cc(NCc2cc3cccc(C)c3nc2-c2ccccc2Cl)cc(OC)c1` had an IC50 of 500 to 1500 nM.

`Cc1cccc2cc(CNC(=O)c3nccnc3N)c(N3CCC(N(C)C(=O)OC(C)(C)C)CC3)nc12` showed an IC50 of 500 to 1500 nM.

For `COc1ccc(NCc2cc3cccc(C)c3nc2-c2ccccc2Cl)cc1OC`, the IC50 fell in the range of 500 to 1500 nM.

With `Cc1cccc2cc(CNC(=O)c3nccnc3N)c(N(C)CCN(C)C(=O)[C@@H]3CCCN3)nc12`, the IC50 was 50 to 250 nM.

`Cc1cccc2cc(Cn3cnc4c(N)ncnc43)c(N3CCC4CCCCC4C3)nc12` (configuration not stated) had an IC50 of 500 to 1500 nM.

Consider `COc1ccc(OCc2cc3cccc(C)c3nc2-c2ccccc2Cl)c(Cl)c1`, for which the IC50 lay within 500 to 1500 nM.

For the compound `CNCCN(C)c1nc2c(C)cccc2cc1CNc1cccc(OC)c1`, the IC50 is 500 to 1500 nM.

The compound `COc1cnc(C(=O)NCc2nc3ccccc3cc2-c2ccccc2C)c(N)n1` registered an IC50 of 500 to 1500 nM.

The compound `CNCCCC(C)c1nc2c(C)cccc2cc1CNC(=O)c1nccnc1N` (configuration not stated) showed an IC50 of 50 to 250 nM.

The compound `Cc1ccc(S(=O)(=O)C(C)CCN(C)c2nc3c(C)cccc3cc2CNC(=O)c2nccnc2N)cc1` (configuration not stated) registered an IC50 of 500 to 1500 nM.

In turn, `Cc1ccc(C)c(-c2nc3c(C)cccc3cc2Cn2cnc3c(N)ncnc32)c1` came in with an IC50 of 50 to 250 nM.

With `CN(C)Cc1ccccc1-c1cc2c(Cl)cccc2nc1CNC(=O)c1nccnc1N`, the IC50 was less than 50 nM.

Consider `COc1cccc(NCc2cc3cccc(C)c3nc2-c2ccccc2Cl)c1`, for which the IC50 lay within 500 to 1500 nM.
